Read-outs that look alike come from different tables or passages of the source.
Assays:
[1] = tested on: capsaicin-induced neurogenic inflammation (ear oedema); experiment: Capsaicin-induced ear oedema (neurogenic inflammation) model in mice; assay type: in vivo, NMRI mice; conditions: for % relative ear oedema (2. app): co-administered with capsaicin 250 μg/ear, 15 min after second capsaicin application; for % inhibition of ear oedema: after second capsaicin application, vs vehicle
Excerpt: Effect on capsaicin-induced neurogenic inflammation in mice and binding to the TRP vanillioid receptor.
The mechanism of cutaneous neurogenic inflammation is connected with the release of neuropeptides from sensory nerve endings. The neuropeptide substance P is believed to play a major role in inducing an inflammatory response by affecting different inflammatory cells.

vanilloid receptors = target: T1, vanilloid receptors (Rattus norvegicus, UniProt O35433); experiment: In vitro radioligand binding assay for vanilloid receptors (MDS Pharma Services); conditions: rat vas deferens, field stimulated
T1 construct: The tissue used in this assay was rat vas deferens, field stimulated; tissue MDS Pharma Services; host or cells: rat vas deferens
Excerpt: Literature reference to this assay is Wardle, K A et al. J PharmPharmacol. 48:285, 1996.

[2] = target: T2, Fatty acid amid hydrolase (FAAH) (Rattus norvegicus, UniProt P97612); experiment: FAAH in vitro enzyme assay (MDS Pharma Services); assay type: biochemical; conditions: rat brain source; substrate Anandamide+[3H]Anandamide
T2 construct: source is rat brain; tissue MDS Pharma Services; host or cells: rat brain
T2 sequence (P97612 1-579): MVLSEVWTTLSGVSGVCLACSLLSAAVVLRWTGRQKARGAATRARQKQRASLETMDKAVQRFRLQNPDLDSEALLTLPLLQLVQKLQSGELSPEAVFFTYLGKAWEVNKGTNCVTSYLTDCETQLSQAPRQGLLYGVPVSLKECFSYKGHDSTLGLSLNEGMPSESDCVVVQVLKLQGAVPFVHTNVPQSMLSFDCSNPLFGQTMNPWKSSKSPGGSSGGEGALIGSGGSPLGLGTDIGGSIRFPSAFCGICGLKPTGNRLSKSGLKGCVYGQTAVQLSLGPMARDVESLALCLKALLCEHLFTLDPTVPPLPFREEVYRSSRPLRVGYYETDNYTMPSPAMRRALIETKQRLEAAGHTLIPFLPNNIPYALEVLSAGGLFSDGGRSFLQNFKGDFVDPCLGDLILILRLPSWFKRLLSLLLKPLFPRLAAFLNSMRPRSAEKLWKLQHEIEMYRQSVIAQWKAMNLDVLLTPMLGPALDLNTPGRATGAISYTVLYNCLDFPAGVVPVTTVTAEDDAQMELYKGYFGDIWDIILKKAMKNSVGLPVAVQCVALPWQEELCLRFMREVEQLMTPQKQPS
Description: The assay is conducted using the following test conditions; source is rat brain, substrate is Anandamide+[3H]Anandamide, the reation is[3H]Anandamide→[3H]Ethanolamine+Arachidonic acid and the quantitation is performed on [3H]Ethanolamine using a test concentration usually of about 10 μM.

[3] = tested on: IL-1β release in LPS-activated human peripheral blood mononuclear cells (PBMC); experiment: LPS-induced IL-1β release from human PBMC; assay type: cell-based; design: IL-1β: unit not given here; conditions: for IL-1β: LPS-stimulated PBMC
Excerpt: (§1) The ability of GMCY to inhibit release of pro-inflammatory cytokines (TNF-α and IL-1) in LPS-activated human peripheral blood mononuclear cells (PBMC) has been investigated.

[4] = tested on: TNF-α release in LPS-activated human peripheral blood mononuclear cells (PBMC); experiment: LPS-induced TNF-α release from human PBMC; assay type: cell-based; conditions: for TNF-α: LPS-stimulated PBMC
Excerpt: as §1

[5] = tested on: IL-6 release in LPS-activated human peripheral blood mononuclear cells (PBMC); experiment: LPS-induced IL-6 release from human PBMC; assay type: cell-based; conditions: physiologically relevant concentrations
human PPARα = target: T3, human PPARα (Homo sapiens, UniProt Q07869); experiment: PPARα agonism, Gal4-luciferase transactivation assay in HEK 293-T; assay type: cell-based
T3 construct: host or cells: HEK 293-T
T3 sequence (Q07869 239-466 limits assumed): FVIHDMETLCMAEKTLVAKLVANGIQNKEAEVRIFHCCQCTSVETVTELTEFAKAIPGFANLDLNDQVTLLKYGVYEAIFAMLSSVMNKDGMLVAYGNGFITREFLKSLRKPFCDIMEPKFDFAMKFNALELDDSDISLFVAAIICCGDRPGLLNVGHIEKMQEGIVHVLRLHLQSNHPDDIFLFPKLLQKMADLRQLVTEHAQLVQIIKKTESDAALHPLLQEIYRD
Description: Effect of GMCY and glyceryl fatty acid esters of higher acid chain length on PPARα agonism.
Agonism of PPARα can be tested by commercially available assays such as by Indigo Biosciences). The test substance is dissolved in DMSO and serial dilutions in DMSO were prepared. A plasmid was formed by fusing a ligand-binding domain of human PPARα, to a DAN-binding domain of the yest transcription factor Gal4 under the control of the SV40 promoter. This plasmid also encoded the UAS-firefly luciferase reporter under the control of the Gal4 DNA response element. Cell-cultures and transactivation assays were HEK 293-T fibroblast (ATCC Manassas, Va.) which were cultured in high-glucose Dulbecco's Minimal Essential Medium (DMEM) supplemented with 10% fetal bovine serum (FBS, Sigma), 0.2 mg/ml streptomycin and 200 U/ml penicillin (Gibco Grand Island, N.Y.). Cells were transfected with plasmid DNA using Lipofectamine reagent (In Vitrogen, Carlsbad, Calif.) using the manufacturers recommended procedures. Sixteen hours after treatment, the cells were lysed with passive lysis buffer (Promega, Madison, Wis.) and a Tecan GeniousPro (Research Triangle Park, N.C.). The fold induction of normalised luciferase activity was calculated relative to DMSO, DMSO-treated cells.

[6] = target: T4, Protein tyrosine kinase enzyme Syk (Homo sapiens, UniProt P43405); experiment: Protein tyrosine kinase Syk inhibition (MDS Pharma, assay no 174200); assay type: biochemical
T4 construct: MDS Pharma assay no 174200

skin = experiment: Skin tolerability of dermatological compositions; conditions: higher doses
Excerpt: Therefore, in current interesting embodiments of the invention, the dermatological composition comprises for reasons of safety and convenience a maximal dose of GMCY or an analogue thereof in an amount of 5% of GMCY or an analogue thereof by weight of the dermatological composition, such as in a maximum doses of 4.5%, 4%, 3.5%, 3%, 2.5%, 2%, 1.5%, 1.25 1%, 0.8, 0.6 and 0.5% of GMCY or an analogue thereof by weight of the dermatological composition.

acute inflammation = conditions: Example 111 of WO 2004/000333; cited from earlier work
[7] = target: T2, Fatty acid amid hydrolase (FAAH); conditions: reference compound of the assay; cited from earlier work
[8] = physiologically relevant concentrations

T1 sequence (O35433 whole entry): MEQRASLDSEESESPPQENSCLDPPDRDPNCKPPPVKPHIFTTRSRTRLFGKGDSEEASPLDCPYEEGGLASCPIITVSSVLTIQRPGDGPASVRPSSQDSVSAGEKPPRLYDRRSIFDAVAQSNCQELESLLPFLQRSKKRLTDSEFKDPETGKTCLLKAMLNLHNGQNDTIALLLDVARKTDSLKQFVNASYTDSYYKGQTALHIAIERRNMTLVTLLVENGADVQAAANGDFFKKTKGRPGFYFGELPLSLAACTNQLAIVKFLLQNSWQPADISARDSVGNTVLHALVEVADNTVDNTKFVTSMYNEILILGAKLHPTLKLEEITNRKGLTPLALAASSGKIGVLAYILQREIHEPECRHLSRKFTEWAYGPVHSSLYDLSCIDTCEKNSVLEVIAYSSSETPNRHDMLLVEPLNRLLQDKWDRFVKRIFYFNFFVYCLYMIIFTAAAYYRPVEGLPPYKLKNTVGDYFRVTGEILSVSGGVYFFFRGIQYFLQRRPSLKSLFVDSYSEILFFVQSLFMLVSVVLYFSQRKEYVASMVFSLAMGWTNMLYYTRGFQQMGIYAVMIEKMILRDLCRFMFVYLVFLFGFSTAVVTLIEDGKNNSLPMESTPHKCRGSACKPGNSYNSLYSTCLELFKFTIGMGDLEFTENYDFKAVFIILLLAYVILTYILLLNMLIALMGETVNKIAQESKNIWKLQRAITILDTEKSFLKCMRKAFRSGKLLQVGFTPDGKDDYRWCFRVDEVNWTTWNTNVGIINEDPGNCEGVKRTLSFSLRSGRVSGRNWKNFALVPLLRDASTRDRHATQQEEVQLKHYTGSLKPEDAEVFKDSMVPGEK

In the case of `CCCCCCCC(=O)OCC(O)CO` (racemic) [GMCY, 1-glyceryl monocaprylate], the “% relative ear oedema (2. app)” value ([1]; 100 μg/ear topical) is reported as 15.8%, the “% inhibition of ear oedema” value ([1]; 100 μg/ear) is reported as 32.6% and the “% relative ear oedema (2. app)” value ([1]; 450 μg/ear topical) is reported as 15.3%. For the same compound, the “% inhibition of ear oedema” value ([1]; 450 μg/ear) was 34.4%, the “% relative ear oedema (2. app)” value ([1]; 2000 μg/ear topical) was 15.0% and the “% inhibition of ear oedema” value ([1]; 2000 μg/ear) was 36.0%. For the same compound, the “reduction of inflammation in comparison to the vehicle control” value ([1]; after repeated application of capsaicin, treated groups overall) was “about 35%”, the “binding to the vanilloid receptors” value (vanilloid receptors) was “does not bind” and the IC50 [2] was 53 µM. For the same compound, the IL-1β ([3]; 1 μM) was 459.2, the IL-1β ([3]; 10 μM) was 320.9 and the IL-1β ([3]; 100 μM) was 238.6. For the same compound, the IL-1β ([3]; 1000 μM) was 124.5, the IL-1β ([3]; 10000 μM) was 8.2 and the “inhibition of LPS induced release of IL-1β” value [3, 8] was “dose dependently inhibit”. The TNF-α ([4]; 1 μM) was 230.2, the TNF-α ([4]; 10 μM) was 105 and the TNF-α ([4]; 100 μM) was 73.7. The TNF-α ([4]; 1000 μM) was 38.5, the TNF-α [4] was 6.9 and the “inhibition of LPS induced release of TNF-α” value [4, 8] was “dose dependently inhibit”. The “inhibition of LPS induced release of IL-6” value [5] was “dose dependently inhibit”, the PPARα agonism (human PPARα) was “did not act as an agonist” and the IC50 [6] was 61 µM. For the same compound, the “skin burning / irritation” value (skin) was “causes burning or weak irritation in higher doses” and the “effect on acute inflammation” value (acute inflammation) was “any effect could not be proven statistically”.

In the case of `CCCCCCCCCC(=O)OCC(O)CO` (centres unmarked) [1-glyceryl monocaprate, reference compound], the “inhibitory effect on neurogenic inflammation (ear oedema vs vehicle control)” value ([1]; all treated groups (2000, 450, 100 μg/ear)) is reported as “no inhibitory effect”.

Work on `C[C@@H]1C[C@H]2[C@@H]3CCC4=CC(=O)C=C[C@]4(C)[C@@]3(F)[C@@H](O)C[C@]2(C)[C@@]1(O)C(=O)CO` [Dexamethasone, reference compound] yielded a TNF-α ([4]; Dexamethasone control, concentration not given) of 87.

In the case of `CCCCCCCC/C=C\CCCCCCCC(=O)C(F)(F)F` [Oleyl Trifluromethyl Ketone], the IC50 [7] is listed as 29 nM.
